Values of other authors, collected in the PKSmart pharmacokinetics tables (Seal et al. 2025).
Where a SMILES comes first, the peptide text is derived from it.

Test: Lombardo, Berellini, Obach 2018, Drug Metab Dispos 46:1466, doi 10.1124/dmd.118.082966
Conditions: human; for MRT / Vd / clearance / half-life: in vivo, iv; for fraction unbound: plasma

MRT [h] | Vd [L/kg] | clearance [mL/min/kg] | half-life [h] | fraction unbound | SMILES
2.5 | 0.24 | 1.6 | 2.09 | 0.8 | CC1(C)S[C@@H]2C(NC(=O)C(NC(=O)NC(=N)N)c3ccccc3)C(=O)N2C1C(=O)O (some centres not stated)
0.67 | 0.25 | 6.2 | 0.8 | – | Cc1[nH]c(=O)c(C#N)cc1-c1ccncc1
0.5 | 0.48 | 14.6 | 1.5 | – | COC(=O)C1[C@@H](O)CC[C@H]2CN3CCc4c([nH]c5ccccc45)[C@@H]3C[C@@H]12 (some centres not stated)
4 | 1.6 | 6.7 | 2.7 | – | S=P(N1CC1)(N1CC1)N1CC1
6.4 | 0.77 | 2 | 8.15 | – | O=C(O)c1cccc(Cc2cc(Cl)ccc2OCc2ccc(Cl)cc2F)n1
8.19 | 4.1 | 8.34 | 19.4 | – | O=C(NCCN1CCOCC1)Nc1nc2ccc(Sc3nnc4ccc(-c5ccc(F)cc5)nn34)cc2s1
10 | 10 | 16 | 11 | – | CN(C)CCCN1c2ccccc2Sc2ccc(Cl)cc21
12.3 | 23.5 | 31.9 | 12.5 | 0.2 | COCCCC/C(=N\OCCN)c1ccc(C(F)(F)F)cc1
2.65 | 1.8 | 11.3 | 2.4 | – | CCC[S@+](O)CCCN(CC)C[C@@H](O)COc1ccc(C#N)cc1
11 | 5.3 | 8.4 | 20 | – | CCCc1nc2c(C)cc(-c3nc4ccccc4n3C)cc2n1Cc1ccc(-c2ccccc2C(=O)O)cc1
8.01 | 0.94 | 1.9 | 6.5 | – | CCN1CCC[C@@H]1CNC(=O)c1cc(S(N)(=O)=O)ccc1OC
2.45 | 0.42 | 3.1 | 2.46 | – | CC(NC(=O)C(Cc1c[nH]c2ccccc12)NC(=O)C(N)Cc1cnc[nH]1)C(=O)NC(Cc1c[nH]c2ccccc12)C(=O)NC(Cc1ccccc1)C(=O)NC(CCCCN)C(N)=O (configuration not stated) (H-HWAWFK-NH2; configuration not given here)
2.7 | 1.35 | 8.33 | 3.05 | – | CC(=O)N(O)CCCCCNC(=O)CCC(=O)N(O)CCCCCNC(=O)CCC(=O)N(O)CCCCCN
3.3 | 11 | 56 | 3.3 | 0.25 | Nc1c2c(nc3ccccc13)CCCC2
2.5 | 0.35 | 2.33 | 2.1 | – | Nc1nc(-n2cc(C(=O)O)c(=O)c3cc(F)c(N4CC(O)C4)c(Cl)c32)c(F)cc1F
– | 2.41 | – | – | 0.5 | CC(C)N(CC[C@H](c1ccccc1)c1cc(CO)ccc1O)C(C)C

MRT [h] | Vd [L/kg] | clearance [mL/min/kg] | half-life [h] | fraction unbound | SMILES
3.04 | 2.17 | 11.9 | 5.61 | – | CCCNc1nc(NCCC)nc(N(C)OC)n1
1.9 | 1.1 | 9.6 | 1.8 | – | CC[N+](C)(C)c1cccc([O-])c1
6.5 | 0.77 | 2.33 | 9.7 | 0.02 | COc1c(C)c2c(c(O)c1C/C=C(\C)CCC(=O)O)C(=O)OC2
23 | 22 | 16 | 9 | – | CN1CCN(CCCN2c3ccccc3Sc3ccc(Cl)cc32)CC1
5.8 | 0.14 | 0.38 | 5.1 | 0.02 | O=C(O)C1=C(CSc2nnnn2CS(=O)(=O)O)CS[C@@H]2C(NC(=O)C(O)c3ccccc3)C(=O)N12 (some centres not stated)
6.38 | 0.5 | 1.33 | 5.38 | 0.01 | COc1ccc2c(c1)[C@@H]1C[C@]1(C(=O)N1[C@@H]3CC[C@H]1CN(C)C3)Cn1c-2c(C2CCCCC2)c2ccc(C(=O)NS(=O)(=O)N(C)C)cc21
7 | 2.3 | 5.47 | 4.8 | – | C=CCN1CCC[C@H]1CNC(=O)c1cc(S(=O)(=O)NC)c(N)cc1OC
4.3 | 0.95 | 3.4 | 4.7 | 0.4 | O=C1CCC(N2C(=O)c3ccccc3C2=O)C(=O)N1 (configuration not stated)
2.98 | 0.27 | 1.51 | 2.52 | – | CC[N+](CC)(CC)CCOc1cccc(OCC[N+](CC)(CC)CC)c1OCC[N+](CC)(CC)CC
45 | – | 0.025 | 60 | 0.0038 | CC/C=C\C/C=C\C/C=C\C/C=C\C/C=C\C/C=C\CCC(=O)OC(C(=O)O[C@H]1C[C@@]2(O)[C@@H](OC(=O)c3ccccc3)[C@@H]3[C@]4(OC(C)=O)CO[C@@H]4C[C@H](O)[C@@]3(C)C(=O)C(OC(C)=O)=C(C1C)C2(C)C)[C@@H](NC(=O)c1ccccc1)c1ccccc1 (some centres not stated)
1.8 | 0.14 | 1.3 | 1.6 | 0.11 | O=C1OC2(c3ccc(O)cc3Oc3cc(O)ccc32)c2ccccc21
2.32 | 0.68 | 4.87 | 2.1 | 0.79 | C[C@H]1COc2c(C3(N)CC3)c(F)cc3c(=O)c(C(=O)O)cn1c23
3.5 | 10.1 | 47.9 | 9.2 | – | CC[C@H](O)[C@@H](C)[C@H]1O[C@@H]1C[C@@](C)(O)/C=C/C=C(\C)[C@H]1OC(=O)C[C@H](O)CC[C@@](C)(O)[C@@H](OC(=O)N2CCN(C3CCCCCC3)CC2)C=C[C@@H]1C
2.7 | 0.12 | 0.65 | 2.11 | 0.01 | CC(C(=O)O)c1ccc(N2Cc3ccccc3C2=O)cc1 (configuration not stated)
2.7 | 0.23 | 1.4 | 2.3 | 1 | CN(C(=O)CO)c1c(I)c(C(=O)NC[C@H](O)CO)c(I)c(C(=O)NC[C@H](O)CO)c1I
0.92 | 0.2 | 3.61 | 1.3 | – | CC1(C)S[C@@H]2C(NC(=O)C(NC(=O)N3CCN(/N=C/c4ccco4)C3=O)c3ccc(O)cc3)C(=O)N2C1C(=O)O (some centres not stated)

SMILES | MRT [h] | Vd [L/kg] | clearance [mL/min/kg] | half-life [h] | fraction unbound
O=P(NCCCl)(NCCCl)O[C@@H]1O[C@H](CO)[C@@H](O)[C@H](O)[C@H]1O | 2.49 | 0.24 | 1.6 | 2.37 | 0.71
